From US20080081825A1, “Nitrogen-Containing Heterocyclic Compounds and Medicinal Use Thereof” (priority 2004, published 2008)

Key:
[1] = molecular target: recombinant human p38α MAP kinase (Homo sapiens, UniProt Q16539); assay: Study on p38α MAP kinase inhibitory activity (ATF-2 phosphorylation, Alpha Screen); type: biochemical; conditions: ATF2 substrate, ATP 90 μmol/L
Protocol: Using activation transcription factor-2 (hereinafter abbreviated as ATF-2) which is a substrate for p38α MAP kinase, the inhibitory action of the compounds of the present invention was investigated on the phosphorylation by a recombinant human p38α MAP kinase.
A kinase buffer (25 mM Tris-HCl (pH 7.5), 5 mM […], 2 mM dithiothreitol, 0.1 mM Na3VO4, 10 mM MgCl2) containing a recombinant human p38α MAP kinase was added to a 384-well plate (5 μL) (6.25 ng protein/well) for fluorescence measurement. After addition of a kinase buffer (5 μL) containing the compound of the present invention, the resulting mixture was incubated at room temperature for 20 minutes. A substrate mixture (5 μL) of biotinylated ATF2 of 5 μg/mL (Upstate Biotechnology #14-432), adenosine triphosphate (90 μmol/L) (Sigma #FL-AAS) and anti-phosphorylated ATF2 antibody (20-fold dilution) (Cell Signaling Technology #9221L) prepared separately was added thereto, and enzyme reaction was carried out at 30° C. for 30 minutes. After the reaction, Hepes buffer (5 μL) containing 0.25% BSA and 100 mM EDTA was added to stop the enzyme reaction. The amount of a complex of the phosphorylated ATF2 and anti-phosphorylated ATF2 antibody produced by the reaction was measured using an Alpha Screenm Rabbit Detection kit (Packard #6760607).
The p38α MAP kinase inhibitory activity, which is the effect of the compound of the present invention, was calculated as an inhibition rate (%) according to the following equation:
(§1) Inhibition rate (%)={(AC−AX)/(AC−AB)}×100
Inhibition rate of compounds with each concentration was calculated, and a value indicating 50% inhibition (IC50) was determined from the inhibition curve.

[2] = system: TNF-α production, THP-1 human monocyte cell line; assay: Inhibitory activity against TNF-α production using human cell lines (LPS-stimulated THP-1); type: cell-based; conditions: 1.5 h, THP-1 cells, LPS stimulation, 90 minutes
Protocol: Using THP-1 which is a human monocyte cell line, the inhibitory effect of the compound of the present invention against TNF-α production stimulated by lipopolysaccharide (LPS) was studied.
Each 50 μL of lipopolysaccharide (LPS; Difco #3120-25-0) prepared to a concentration of 40 ng/mL using RPMI-1640 medium containing 10% fetal calf serum (hereinafter abbreviated to RPMI-1640) and RPMI-1640 containing the compound of the present invention was added to a 96-well plate for cell culture. One hundred μL of the cell suspension of THP-1 (Dainippon Pharmaceutical Co., Ltd, #06-202) prepared to a cell density of 2×10^6 cells/mL using RPMI-1640 was added and cultured for 90 minutes at 37° C. in an incubator (5% CO2, 95% air). After completion of the reaction, the culture medium supernatant was recovered and the amount of produced TNF-α was measured using an ELISA kit (Invitrogen, #850090192).
The inhibitory activity against TNF-α production, which is the effect of the compound of the present invention, was calculated as an inhibition rate (%) by the following equation:
as §1
AX is a measured value with LPS induction in the presence of a test compound. Inhibition rate of compounds with each concentration was calculated, and a value indicating 50% inhibition (IC50) was determined from the inhibition curve.

[3] = system: TNF-α production induced by lipopolysaccharide (LPS); assay: Rat cytokine-production model (LPS-induced TNF-α in plasma); type: in vivo; conditions: dose of 3 mg/kg orally, LPS 10 μg/kg intravenously after 2 hours, plasma 90 minutes after LPS
Protocol: The in vivo effect of the compound of the present invention was studied on TNF-α production induced by lipopolysaccharide (LPS) in rats.
A vehicle containing the compound of the present invention was orally administered to male Lew […] (Charles River Japan, Inc.), and after 2 hours, lipopolysaccharide (LPS, 055:B5, Difco) was intravenously administered at the dose of 10 μg/kg (5 animals/group). Only a vehicle was orally administered to a control group (5 animals). Ninety minutes after the LPS treatment, heparinized blood collection was performed via the abdominal cava vein under anesthesia with ether, and blood plasma was obtained by centrifugation (12,000 rpm, 3 minutes, 4° C.). The obtained blood plasma sample was stored at −80° C. until it was used. TNF-α in the blood plasma was measured using an ELISA kit from Genzyme/Techne (#10516).
The inhibitory activity of the compound of the present invention against TNF-α production was calculated as an inhibition rate (%) according to the following equation:
Inhibition rate (%)={(AC−AX)/A^C}×100

recombinant human p38α MAP kinase, sequence (Q16539 whole entry): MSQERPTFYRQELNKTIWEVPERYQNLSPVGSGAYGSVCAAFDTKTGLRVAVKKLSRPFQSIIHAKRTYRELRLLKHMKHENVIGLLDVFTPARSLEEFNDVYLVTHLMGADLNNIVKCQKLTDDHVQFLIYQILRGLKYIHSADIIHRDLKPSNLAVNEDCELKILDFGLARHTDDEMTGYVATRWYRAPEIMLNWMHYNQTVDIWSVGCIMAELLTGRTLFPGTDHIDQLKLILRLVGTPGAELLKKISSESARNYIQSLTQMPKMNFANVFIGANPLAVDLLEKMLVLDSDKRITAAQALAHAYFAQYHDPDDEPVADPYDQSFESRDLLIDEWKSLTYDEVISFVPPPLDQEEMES

Row | IC50 [1] [nM] | IC50 [2] [nM] | Compound | inhibition against in vivo TNF-α production induced by LPS stimulation [3] [%]
1 | 4.9 | – | O=c1ccc(C(=NO)c2ccc(F)cc2F)cn1-c1c(Cl)cccc1Cl [Example 7, 1-(2,6-dichlorophenyl)-5-[(2,4-difluorophenyl)(hydroxyimino)methyl]pyridin-2(1H)-one] | –
2 | 34 | 2.4 | Cc1cc(F)cc(C)c1-n1cc(/C(=N/OC2CCN(C)CC2)c2ccc(F)cc2F)ccc1=O [Example 48, 5-((Z)-(2,4-difluorophenyl) {[(1-methyl-4-piperidinyl)oxy]iimino}methyl)-1-(4-fluoro-2,6-dimethylphenyl)-2(1H)-pyridinone] | 72
3 | 20.5 | 7.1 | Cc1cc(C)c(-n2cc(C(=NOC3CCN(C)CC3)c3ccc(F)cc3F)ccc2=O)c(C)c1 [Example 52(9), 5-((2,4-difluorophenyl){[(1-methyl-4-piperidinyl)oxy]imino}methyl)-1-mesityl-2(1H)-pyridinone] | 72
